Test results from patent US4413007A, “Pesticidal symmetrical N-substituted bis-carbamoyloximino disulfide compounds” (priority 1978, dated 1983).

Assays:
[1] = tested on: bean aphid (Aphis fabae Scop.); assay: Bean Aphid Foliage Spray Test; assay type: in vivo; parameters: key: A: excellent control; B: partial control; C: no control; conditions: 500 ppm, 24 hour holding period
Experimental: (§1) Suspensions of the test compounds were prepared by dissolving one gram of compound in 50 milliliters of acetone in which had been dissolved 0.1 gram (10 percent of the weight of compound) of an alkylphenoxy polyethoxyethanol surfactant, as an emulsifying or dispersing agent. The resulting solution was mixed into 150 milliliters of water to give roughly 200 milliliters of a suspension containing the compound in finely divided form. The thus-prepared stock suspension contained 0.5 percent by weight of compound. The test concentrations in parts per million by weight employed in the tests described hereinbelow were obtained by appropriate dilutions of the stock suspension with water. The test procedures were as follows:
Adults and nymphal stages of the bean aphid (Aphis fabae Scop.) reared on potted dwarf nasturtium plants at 65°-70° F. and 50-70 percent relative humidity, constituted the test insects. For testing purposes, the number of aphids per pot was standardized to 100-150 by trimming plants containing excess aphids.
The test compounds were formulated by diluting the stock suspension with water to give a suspension containing 500 parts of test compound per million parts of final formulation.
The potted plants (one pot per compound tested) infested with 100-150 aphids, were placed on a revolving turntable and sprayed with 100-110 milliliters of test compound formulation by use of a DeVilbiss spray gun set at 40 psig. air pressure. This application, which tested 25 seconds, was sufficient to wet the plants to run-off. As a control, 100-110 milliliters of a water-acetone-emulsifier solution containing no test compound were also sprayed on infested plants. After spraying, the pots were placed on their sides on a sheet of white standard mimeograph paper which had been previously ruled to facilitate counting. Temperature and humidity in the test room during the 24 hour holding period were 65°-70° F. and 50-70 percent, respectively. Aphids which fell onto the paper and were unable to remain standing after being uprighted were considered dead. Aphids remaining on the plants were observed closely for movement and those which were unable to move the length of the body upon stimulation by prodding were considered dead. Percent mortality was recorded for various concentration levels.
(§2) In these tests the pesticidal activity of the compounds against aphid, mite, Southern Armyworm, Bean Beetle and house fly was rated as follows: […]

[2] = tested on: house flies (Musca domestica, L.); assay: Fly Bait Test; assay type: in vivo; parameters: key: A: excellent control; B: partial control; C: no control; conditions: 500 ppm in sugar solution, twenty four hours
Experimental: as §1
Four to six day old adult house flies (Musca domestica, L.) reared according to the specifications of the Chemical Specialities Manufacturing Association (Blue Book, McNair-Dorland Co., N.Y. 1954; pages 243-244, 261) under controlled conditions of 80±5° F. and 50±5 percent relative humidity, were the test insects. The flies were immobilized by anesthetizing with carbon dioxide and twenty five immobilized individuals,males and females, were transferred to a cage consisting of a standard food strainer about five inches in diameter which was inverted over a wrapping-paper-covered surface. The test compounds were formulated by diluting the stock suspension with a 10 percent (by weight) sugar solution to give a suspension containing 500 parts of test compound per million parts of final formulation, by weight. Ten milliliters of the test formulation were added to a souffle cup containing a one-inch square of an absorbent cotton pad. This bait cup was introduced and centered on the blotting paper under the food strainer prior to admitting the anesthetized flies. The caged flies were allowed to feed on the bait for twenty four hours, at a temperature of 80±5° F. and the relative humidity of 50±5 percent.
as §2

Compound | Bean Aphid control rating [1] | House-Fly control rating [2]
CN(SSN(C)C(=O)ON=C1CSCCS1)C(=O)ON=C1CSCCS1 [N,N'-Bis-[1,4-Dithiane-2-O-(N-methylcarbamoyl)oximino]disulfide] | A | A
CC(=NOC(=O)N(C)SSN(C)C(=O)ON=C(C)SCCC#N)SCCC#N [N,N'-Bis-[1-(2-Cyanoethylthio)acetaldehyde O-(N-methylcarbamoyl)oxime]disulfide] | A | A
CSC(C)=NOC(=O)N(C)SSN(C)C(=O)ON=C(C)SC [N,N'-Bis-[1-Methylthioacetaldehyde O-(N-methylcarbamoyl)oxime]disulfide] | A | A
